Experimental data published in patent US7947270B2, “Removing dental plaque with krill enzymes” (Arcimboldo AB, priority 1992, dated 2011).
Where a SMILES comes first, the peptide text is derived from it.

Legend:
[1] = test system: krill-derived multifunctional hydrolase; experiment: protease inhibitors at pH 9.5 against hydrolase preparations; format: biochemical, antarctic krill
Protocol: The effectiveness of three protease inhibitors was tested at pH 9.5 against the three hydrolase preparations.

[2] = test system: mice with P388 murine leukemia; experiment: Toxicity on mice with s.c. implanted P388 murine leukemia; format: in vivo; settings: all mice in doxorubicin group except those receiving the lowest dosage
[3] = test system: mice with s.c. implanted P388 murine leukemia; experiment: toxicity on mice with P388 murine leukemia
[4] = test system: krill-derived multifunctional hydrolase (Prep-8); experiment: protease inhibitors against Prep-8 at pH 7.5; format: biochemical, antarctic krill
Protocol: The effectiveness of other protease inhibitors against Prep-8 was tested in a 0.1 M Tris-HCl buffer pH 7.5. Benzoyl-val-gly-arg-p-nitroanilide (“ARG-p-NA”) and succinyl-ala-pro-phe-p-nitroanilide (Phe-pNA) were used as substrates.

[5] = test system: krill-derived multifunctional hydrolase (antarctic krill), Prep-8 (eluted at pH 8), SEQ ID NO. 1 (N-terminal sequence); experiment: Km determination, krill-derived multifunctional hydrolase Prep-8; format: biochemical; settings: 0.1 M CAPS buffer, 2 mM Ca++, pH 9.5
Protocol: (§1) The krill-derived multifunctional hydrolase was purified by the protocol described above in Example 1C. Three preparations the krill-derived multifunctional hydrolase were prepared. The three preparations differed only in that the krill multifunctional hydrolase was eluted from the trypsin inhibitor gel with buffer at pH 3, pH 8, and pH 11, respectively. These preparations shall be termed “Prep-3,” “Prep-8,” and “Prep-11.” These preparations were dissolved in water to a concentration of 6 mg/ml.
(§2) The SDS bands were electroblotted onto PVDF membranes and sequenced through 25 cycles of Edman degradation. See, Matsudaira, J. Biol. Chem., 262: 10035-10038, 1987. […] Accordingly, it is clear that all three preparations are homogenous, although each is micro-heterogeneous at position 5. The proteolytic activity of each of the three preparations was tested against substrate benzoyl-val-gly-arg-p-nitroaniline. Hydrolysis of this substrate can be monitored at […], reflecting the release of p-nitroaniline. The profile for Prep-3 (shown with filled squares), Prep-8 (shown with open diamonds) and Prep-11 (shown with filled diamonds) are identical.

[6] = test system: krill-derived multifunctional hydrolase (antarctic krill), Prep-3 (eluted at pH 3), SEQ ID NO. 1 (N-terminal sequence); experiment: Km determination, krill-derived multifunctional hydrolase Prep-3; format: biochemical; settings: 0.1 M CAPS buffer, 2 mM Ca++, pH 9.5
Protocol: as §1, §2

[7] = test system: krill-derived multifunctional hydrolase (antarctic krill), Prep-11 (eluted at pH 11), SEQ ID NO. 1 (N-terminal sequence); experiment: Km determination, krill-derived multifunctional hydrolase Prep-11; format: biochemical; settings: 0.1 M CAPS buffer, 2 mM Ca++, pH 9.5
Protocol: as §1, §2

[8] = target: krill-derived multifunctional hydrolase (antarctic krill); experiment: cell-based or functional assay
Sequence of krill-derived multifunctional hydrolase (antarctic krill) (P86599 1-25): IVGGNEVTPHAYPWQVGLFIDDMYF

HL60 cells = experiment: in vitro binding of HL60 cells to endothelial cells; format: cell-based, human
Protocol: Endothelial cells were first passaged onto 96 well plates at a given concentration. The endothelial cells used in the experiment are described in Edgell et al., Proc. Natl. Acad. Sci. USA (1983) 80:3734. The cells were incubated at 37° C. under a DMEM cell culture medium containing 10% fetal calf serum and under a 5% CO2 atmosphere. Then, the medium was removed and replaced with 100 μl of a suspension of 200,000 HL60 cells (a […], available from the European Cell Culture Bank under ECACC Accession No. 85011431) in RPMI medium containing 10% fetal calf serum. The cells were incubated for 30 minutes. After this, the medium was removed and the adherent cells were washed two times with DMEM medium. The relative adherence of the HL60 cells was measured by measuring the difference in optical density at 450 nm between the plates on which the cells were co-incubated and plates having endothelial cells alone.
The effect of TNFα was measured by adding TNFα at 1500 units/ml to the endothelial cells 4 hours before the incubation with HL60 cells. The effect of antibody to E-selectin was measured by adding 25 μg/ml of monoclonal antibody BBAZ (R&D Systems Europe, Oxford, England) to the HL60 cells. The results of the experiments were: […]
The number of HL60 cells was determined by subtracting the cell numbers for control plates having only endothelial cells. […]

[9] = Prep-11, pH 9.5, inhibitor 1 μM
[10] = substrate Arg-pNA, inhibitor 10 μM, pH 7.5
[11] = substrate Phe-pNA, inhibitor 10 μM, 0.1 M Tris-HCl pH 7.5
[12] = substrate Arg-pNA, inhibitor 0.2 μM, pH 7.5
[13] = substrate Phe-pNA, inhibitor 0.2 μM, pH 7.5

## CC(C)C[C@H](NC(=O)[C@@H](NC(=O)N[C@@H](Cc1ccccc1)C(=O)O)[C@@H]1CCN=C(N)N1)C(=O)N[C@H](C=O)Cc1ccccc1 [Chymostatin]
[1]; Prep-3, pH 9.5, inhibitor 1 μM
  % activity remaining: 0%
[1]; Prep-8, pH 9.5, inhibitor 1 μM
  % activity remaining: 0%
[1]; [9]
  % activity remaining: 0%

## COc1cccc2c1C(=O)c1c(O)c3c(c(O)c1C2=O)C[C@@](O)(C(=O)CO)C[C@@H]3O[C@H]1C[C@H](N)[C@H](O)[C@H](C)O1 [DOX, doxorubicin]
[2]
  weight loss and death of mice: lost weight and died
[3]; 2.5 mg/kg i.p. daily, 9 consecutive days
  Toxic death: 6/6
[3]; all doses
  death and weight loss (summary): all mice in the doxorubicin group, except for those receiving the lowest dosage, lost weight and died

## CC(C)C[C@H](NC(=O)N[C@H](C(=O)N[C@@H](CCC(N)=O)C(=O)N[C@@H](C)C=O)[C@@H]1CCNC(=N)N1)C(=O)O [Elastatinal]
[4]; [10]
  Activity remaining, %: 100%
[4]; [11]
  Activity remaining, %: 100%

## CC(C)C[C@H](NP(=O)(O)O[C@@H]1O[C@@H](C)[C@H](O)[C@@H](O)[C@H]1O)C(=O)N[C@@H](Cc1c[nH]c2ccccc12)C(=O)O [Phosphoramidon]
[4]; [10]
  Activity remaining, %: 87%
[4]; [11]
  Activity remaining, %: 94%

## CC(C)[C@H](NC(=O)c1ccccc1)C(=O)NCC(=O)N[C@@H](CCCNC(=N)N)C(=O)Nc1ccc([N+](=O)[O-])cc1 [benzoyl-pal-gly-arg-p-nitroanilide] (HELM PEPTIDE1{[O=C(c1ccccc1)[*:2]].V.G.R.[O=[N+]([O-])c1ccc(N[*:1])cc1]}$$$$V2.0)
[5]
  Km: 210 ± 8 µM
[6]
  Km: 210 ± 8 µM
[7]
  Km: 230 ± 13 µM

## C[C@H](NC(=O)CCC(=O)O)C(=O)N[C@@H](C)C(=O)N1CCC[C@H]1C(=O)N[C@@H](Cc1ccccc1)C(=O)Nc1ccc([N+](=O)[O-])cc1 [succinyl-ala-ala-pro-phe-p-nitroanilide] (HELM PEPTIDE1{[O=C(O)CCC(=O)[*:2]].A.A.P.F.[O=[N+]([O-])c1ccc(N[*:1])cc1]}$$$$V2.0)
[5]
  Km: 270 ± 50 µM
[6]
  Km: 260 ± 50 µM
[7]
  Km: 270 ± 40 µM

## Anti-Thrombin III [listing 1 of 2 here]
[4]; [12]
  Activity remaining, %: 4%
[4]; [13]
  Activity remaining, %: 2%

## Anti-Thrombin III [listing 2 of 2 here]
[8]
  Activity remaining, % of Prep-8 with 0.2 µM inhibitor, substrate Arg-pNA, pH 7.5 (% activity remaining): 4
  Activity remaining, % of Prep-8 with 0.2 µM inhibitor, substrate Phe-pNA, pH 7.5 (% activity remaining): 2

## Bovine pancreatic trypsin inhibitor
[1]; Prep-3, pH 9.5, inhibitor 1 μM
  % activity remaining: 2%
[1]; Prep-8, pH 9.5, inhibitor 1 μM
  % activity remaining: 1%
[1]; [9]
  % activity remaining: 1%

## Eglin C fragment (peptide)
[8]
  Activity remaining, % of Prep-8 with 8.4 µM inhibitor, substrate Phe-pNA, pH 7.5 (% activity remaining): 100

## TNFα
HL60 cells; Expt 2: endothelial cells pretreated with TNFα
  HL60 cell number: 43,990
HL60 cells; Expt 2: endothelial cells pretreated with TNFα 1500 units/ml 4 hours
  Absorbance (increase over endothelial cells alone): 0.444

## α-proteinase inhibitor
[8]
  Activity remaining, % of Prep-8 with 0.2 µM inhibitor, substrate Arg-pNA, pH 7.5 (% activity remaining): 0
  Activity remaining, % of Prep-8 with 0.2 µM inhibitor, substrate Phe-pNA, pH 7.5 (% activity remaining): 0

## α-proteinase inhibitor: protease inhibitor
[4]; [12]
  Activity remaining, %: 0%
[4]; [13]
  Activity remaining, %: 0%

B1: α-anti-chymotrypsin (protein, UniProt P01011 24-423, looked up, species assumed)
Alpha-1-antichymotrypsin: HPNSPLDEENLTQENQDRGTHVDLGLASANVDFAFSLYKQLVLKAPDKNVIFSPLSISTALAFLSLGAHNTTLTEILKGLKFNLTETSEAEIHQSFQHLLRTLNQSSDELQLSMGNAMFVKEQLSLLDRFTEDAKRLYGSEAFATDFQDSAAAKKLINDYVKNGTRGKITDLIKDLDSQTMMVLVNYIFFKAKWEMPFDPQDTHQSRFYLSKKKWVMVPMMSLHHLTIPYFRDEELSCTVVELKYTGNASALFILPDQDKMEEVEAMLLPETLKRWRDSLEFREIGELYLPKFSISRDYNLNDILLQLGIEEAFTSKADLSGITGARNLAVSQVVHKAVLDVFEEGTEASAATAVKITLLSALVETRTIVRFNRPFLMIIVPTDTQNIFFMSKVTNPKQA
[4]; [12]
  Activity remaining, %: 7%
[4]; [13]
  Activity remaining, %: 1%
[8]
  Activity remaining, % of Prep-8 with 0.2 µM inhibitor, substrate Arg-pNA, pH 7.5 (% activity remaining): 7
  Activity remaining, % of Prep-8 with 0.2 µM inhibitor, substrate Phe-pNA, pH 7.5 (% activity remaining): 1
